Laboratory results reported in US9242987B2, “Heterocyclyl pyrazolopyrimidine analogues as JAK inhibitors” (Cellzome Limited, priority 2009, dated 2016).

Legend:
[1] = target: T1, JAK2 (Homo sapiens, UniProt O60674); assay: Kinobeads assay, JAK2; assay type: binding; settings: mixed Molt4/Ramos cell lysate, dot blot detection
T1 construct: endogenous in cells; host or cells: Mixed Molt4/Ramos lysate (1:2)
Experimental: (§1) The compounds of the present invention as described in the previous examples were tested in a Kinobeads™ assay as described for ZAP-70 (WO-A 2007/137867). Briefly, test compounds (at various concentrations) and the affinity matrix with the immobilized aminopyrido-pyrimidine ligand 24 were added to cell lysate aliquots and allowed to bind to the proteins in the lysate sample. After the incubation time the beads with captured proteins were separated from the lysate. Bound proteins were then eluted and the presence of JAK2 and JAK3 was detected and quantified using specific antibodies in a dot blot procedure and the Odyssey infrared detection system. Dose response curves for individual kinases were generated and IC50 values calculated. Kinobeads™ assays for ZAP-70 (WO-A 2007/137867) and for kinase selectivity profiling (WO-A 2006/134056) have been previously described.
(§2) The affinity matrix was washed two times with 15 mL of 1×DP buffer containing 0.2% NP40 (IGEPAL® CA-630, Sigma, #13021) and then resuspended in 1×DP buffer containing 0.2% NP40 (3% beads slurry).
(§3) 5×DP buffer: 250 mM Tris-HCl pH 7.4, 25% Glycerol, 7.5 mM MgCl2, 750 mM NaCl, 5 mM Na3VO4; filter the 5×DP buffer through a 0.22 μm filter and store in aliquots at −80° C. The 5×DP buffer is diluted with H2O to 1×DP buffer containing 1 mM DTT and 25 mM NaF.
(§4) Stock solutions of test compounds were prepared in DMSO. In a 96 well plate 30 μL solution of diluted test compounds at 5 mM in DMSO were prepared. Starting with this solution a 1:3 dilution series (9 steps) was prepared. For control experiments (no test compound) a buffer containing 2% DMSO was used.
(§5) Molt4 cells (ATCC catalogue number CRL-1582) and Ramos cells (ATCC catalogue number CRL-1596) were grown in 1 L Spinner flasks (Integra Biosciences, #182101) in suspension in RPMI 1640 medium (Invitrogen, #21875-034) supplemented with 10% Fetal Bovine Serum (Invitrogen) at a density between 0.15×10^6 and 1.2×10^6 cells/mL. Cells were harvested by centrifugation, washed once with 1×PBS buffer (Invitrogen, #14190-094) and cell pellets were frozen in liquid nitrogen and subsequently stored at −80° C. Cells were homogenized in a Potter S homogenizer in lysis buffer: 50 mM Tris-HCl, 0.8% NP40, 5% glycerol, 150 mM NaCl, 1.5 mM MgCl2, 25 mM NaF, 1 mM sodium vanadate, 1 mM DTT, pH 7.5. One complete EDTA-free tablet (protease inhibitor cocktail, Roche Diagnostics, 1873580) per 25 mL buffer was added. The material was dounced 10 times using a mechanized POTTER S, transferred to 50 mL falcon tubes, incubated for 30 minutes on ice and spun down for 10 minutes at 20,000 g at 4° C. (10,000 rpm in Sorvall SLA600, precooled). The supernatant was transferred to an ultracentrifuge (UZ)-polycarbonate tube (Beckmann, 355654) and spun for 1 hour at 100.000 g at 4° C. (33.500 rpm in Ti50.2, precooled). The supernatant was transferred again to a fresh 50 mL falcon tube, the protein concentration was determined by a Bradford assay (BioRad) and samples containing 50 mg of protein per aliquot were prepared. The samples were immediately used for experiments or frozen in liquid nitrogen and stored frozen at −80° C.
(§6) Cell lysate (approximately 50 mg protein per plate) was thawed in a water bath at room temperature and then stored on ice. To the thawed cell lysate 1×DP 0.8% NP40 buffer containing protease inhibitors (1 tablet for 25 mL buffer; EDTA-free protease inhibitor cocktail; Roche Diagnostics 1873580) was added in order to reach a final protein concentration of 10 mg/mL total protein. The diluted cell lysate was stored on ice. Mixed Molt4/Ramos lysate was prepared by combining one volume of Molt4 lysate and two volumes of Ramos lysate (ratio 1:2).
(§7) To a 96 well filter plate (Multiscreen HTS, BV Filter Plates, Millipore #MSBVN1250) were added per well: 100 μL affinity matrix (3% beads slurry), […], of compound solution, and 50 μL of diluted lysate. […]

[2] = target: T2, JAK3 (Homo sapiens, UniProt P52333); assay: Kinobeads assay, JAK3; assay type: binding; settings: mixed Molt4/Ramos cell lysate, dot blot detection
T2 construct: endogenous in cells; host or cells: Mixed Molt4/Ramos lysate (1:2)
T2 sequence (P52333 1-1124): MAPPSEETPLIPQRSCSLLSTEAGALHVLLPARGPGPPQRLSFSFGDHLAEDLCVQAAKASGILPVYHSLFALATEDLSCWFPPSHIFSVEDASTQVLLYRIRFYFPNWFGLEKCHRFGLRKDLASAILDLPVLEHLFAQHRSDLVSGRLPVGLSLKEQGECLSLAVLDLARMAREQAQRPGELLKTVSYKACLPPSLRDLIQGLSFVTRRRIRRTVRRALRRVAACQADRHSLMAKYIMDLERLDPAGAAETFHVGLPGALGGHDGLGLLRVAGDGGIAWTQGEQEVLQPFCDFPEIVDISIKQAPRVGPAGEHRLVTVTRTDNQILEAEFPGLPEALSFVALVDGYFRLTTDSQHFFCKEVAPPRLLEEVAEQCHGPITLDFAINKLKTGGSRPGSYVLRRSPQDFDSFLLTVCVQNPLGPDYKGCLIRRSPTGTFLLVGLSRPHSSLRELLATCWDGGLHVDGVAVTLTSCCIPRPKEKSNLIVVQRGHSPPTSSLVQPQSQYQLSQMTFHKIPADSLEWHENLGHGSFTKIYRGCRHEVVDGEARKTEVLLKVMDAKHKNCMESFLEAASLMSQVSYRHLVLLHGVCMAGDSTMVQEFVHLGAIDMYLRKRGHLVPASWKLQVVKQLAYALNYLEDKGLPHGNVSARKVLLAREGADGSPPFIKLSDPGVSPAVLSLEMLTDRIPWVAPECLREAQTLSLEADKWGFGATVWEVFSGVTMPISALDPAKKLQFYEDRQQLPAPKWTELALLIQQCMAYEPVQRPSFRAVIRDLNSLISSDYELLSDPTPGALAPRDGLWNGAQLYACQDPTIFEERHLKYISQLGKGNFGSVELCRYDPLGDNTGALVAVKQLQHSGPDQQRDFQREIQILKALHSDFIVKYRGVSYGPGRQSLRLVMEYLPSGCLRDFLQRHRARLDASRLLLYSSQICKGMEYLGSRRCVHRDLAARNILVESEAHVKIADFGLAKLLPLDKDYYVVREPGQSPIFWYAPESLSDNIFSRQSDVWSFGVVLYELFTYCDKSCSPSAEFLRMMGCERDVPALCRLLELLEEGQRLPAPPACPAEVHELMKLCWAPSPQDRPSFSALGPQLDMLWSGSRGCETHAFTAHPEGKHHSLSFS
Experimental: as §1, §2, §3, §4, §5, §6, §7

T1 sequence (O60674 whole entry): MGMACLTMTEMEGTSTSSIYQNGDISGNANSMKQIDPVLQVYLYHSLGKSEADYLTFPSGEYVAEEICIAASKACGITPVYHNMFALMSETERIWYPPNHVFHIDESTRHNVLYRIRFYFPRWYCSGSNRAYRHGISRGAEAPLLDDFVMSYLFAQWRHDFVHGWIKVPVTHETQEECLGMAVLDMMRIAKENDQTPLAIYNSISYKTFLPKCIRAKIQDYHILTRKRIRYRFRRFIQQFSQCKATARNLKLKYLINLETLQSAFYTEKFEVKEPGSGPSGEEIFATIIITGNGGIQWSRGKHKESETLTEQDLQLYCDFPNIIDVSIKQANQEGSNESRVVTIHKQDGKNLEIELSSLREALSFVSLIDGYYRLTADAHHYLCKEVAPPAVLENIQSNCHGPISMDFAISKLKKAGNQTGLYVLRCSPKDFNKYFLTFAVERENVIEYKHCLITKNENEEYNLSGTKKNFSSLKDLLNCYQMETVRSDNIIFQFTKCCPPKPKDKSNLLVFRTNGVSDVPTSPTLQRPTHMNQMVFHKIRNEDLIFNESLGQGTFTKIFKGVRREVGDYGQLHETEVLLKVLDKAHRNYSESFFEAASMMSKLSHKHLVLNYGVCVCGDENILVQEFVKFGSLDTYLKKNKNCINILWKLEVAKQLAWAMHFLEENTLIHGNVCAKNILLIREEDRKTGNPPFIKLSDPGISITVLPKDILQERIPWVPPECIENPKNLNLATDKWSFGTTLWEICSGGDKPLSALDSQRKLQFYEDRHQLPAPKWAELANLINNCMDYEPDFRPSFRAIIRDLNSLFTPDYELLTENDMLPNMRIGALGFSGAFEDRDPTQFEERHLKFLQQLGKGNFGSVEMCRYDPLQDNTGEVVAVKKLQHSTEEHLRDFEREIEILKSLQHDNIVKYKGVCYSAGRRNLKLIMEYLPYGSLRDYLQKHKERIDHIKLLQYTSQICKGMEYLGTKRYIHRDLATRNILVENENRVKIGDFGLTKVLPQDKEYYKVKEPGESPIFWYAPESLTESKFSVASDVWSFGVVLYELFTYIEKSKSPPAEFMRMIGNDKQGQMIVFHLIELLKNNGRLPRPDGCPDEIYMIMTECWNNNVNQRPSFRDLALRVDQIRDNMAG

IC50 [1] [nM]	IC50 [2] [nM]	SMILES
≥ 10000	< 100	COCCOc1cccc(Cn2ncc3cnc(Nc4cnn(C)c4)nc32)c1C [Example 185, 1-(3-(2-Methoxyethoxy)-2-methylbenzyl)-N-(1-methyl-1H-pyrazol-4-yl)-1H-pyrazolo[3,4-d]pyrimidin-6-amine]
1000 to 10000	100 to 1000	Cn1cc(Nc2ncc3cnn(-c4ccc(C(=O)NCCO)cc4)c3n2)cn1 [Example 148, N-(2-Hydroxyethyl)-4-(6-((1-methyl-1H-pyrazol-4-yl)amino)-1H-pyrazolo[3,4-d]pyrimidin-1-yl)benzamide]
≥ 10000	100 to 1000	Cn1cc(Nc2ncc3cnn(Cc4cccc(OC(F)(F)F)c4)c3n2)cn1 [Example 86, N-(1-Methyl-1H-pyrazol-4-yl)-1-(3-(trifluoromethoxy)benzyl)-1H-pyrazolo[3,4-d]pyrimidin-6-amine]
1000 to 10000	< 100	Fc1ccccc1Cn1ncc2cnc(Nc3cnn(CC(F)F)c3)nc21 [Example 128, N-(1-(2,2-Difluoroethyl)-1H-pyrazol-4-yl)-1-(2-fluorobenzyl)-1H-pyrazolo[3,4-d]pyrimidin-6-amine]
1000 to 10000	< 100	Cc1cccc(F)c1Cn1ncc2cnc(Nc3cnn(C)c3)nc21 [Example 117, 1-(2-Fluoro-6-methylbenzyl)-N-(1-methyl-1H-pyrazol-4-yl)-1H-pyrazolo[3,4-d]pyrimidin-6-amine]
≥ 10000	100 to 1000	CC(c1ccccc1F)n1ncc2cnc(Nc3cnn(C)c3)nc21 (centres unmarked) [Example 26, 1-(1-(2-Fluorophenyl)ethyl)-N-(1-methyl-1H-pyrazol-4-yl)-1H-pyrazolo[3,4-d]pyrimidin-6-amine]
1000 to 10000	< 100	COc1nn(CCO)cc1Nc1ncc2cnn(Cc3cc(F)ccc3F)c2n1 [Example 51, 2-(4-(1-(2,5-Difluorobenzyl)-1H-pyrazolo[3,4-d]pyrimidin-6-ylamino)-3-methoxy-1H-pyrazol-1-yl)ethanol]
< 100	< 100	Cn1cc(Nc2ncc3cnn(Cc4ccccc4F)c3n2)cc1C(=O)NCCN1CCOCC1 [Example 243, 4-((1-(2-Fluorobenzyl)-1H-pyrazolo[3,4-d]pyrimidin-6-yl)amino)-1-methyl-N-(2-morpholinoethyl)-1H-pyrrole-2-carboxamide]
≥ 10000	100 to 1000	Cn1cc(Nc2ncc3cnn(Cc4cccc(OCCOCc5ccccc5)c4)c3n2)cn1 [Example 222, 1-(3-(2-(Benzyloxy)ethoxy)benzyl)-N-(1-methyl-1H-pyrazol-4-yl)-1H-pyrazolo[3,4-d]pyrimidin-6-amine]
1000 to 10000	< 100	Cc1ccccc1Cn1ncc2cnc(Nc3cnn(C)c3)nc21 [Example 84, N-(1-Methyl-1H-pyrazol-4-yl)-1-(2-methylbenzyl)-1H-pyrazolo[3,4-d]pyrimidin-6-amine]
1000 to 10000	< 100	Cn1cc(Nc2ncc3cnn(Cc4c(F)ccc(N5CCNCC5)c4F)c3n2)cn1 [Example 301, 1-(2,6-Difluoro-3-(piperazin-1-yl)benzyl)-N-(1-methyl-1H-pyrazol-4-yl)-1H-pyrazolo[3,4-d]pyrimidin-6-amine]
1000 to 10000	100 to 1000	Cn1cc(Nc2ncc3cnn(Cc4cccc5ccccc45)c3n2)cn1 [Example 220, N-(1-Methyl-1H-pyrazol-4-yl)-1-(naphthalen-1-ylmethyl)-1H-pyrazolo[3,4-d]pyrimidin-6-amine]
1000 to 10000	< 100	CC(C)(O)Cn1cc(Nc2ncc3cnn(Cc4ccccc4F)c3n2)cn1 [Example 112, 1-(4-((1-(2-Fluorobenzyl)-1H-pyrazolo[3,4-d]pyrimidin-6-yl)amino)-1H-pyrazol-1-yl)-2-methylpropan-2-ol]
100 to 1000	< 100	Fc1ccccc1Cn1ncc2cnc(Nc3cnn(CCCN4CCC4)c3)nc21 [Example 177, N-(1-(3-(Azetidin-1-yl)propyl)-1H-pyrazol-4-yl)-1-(2-fluorobenzyl)-1H-pyrazolo[3,4-d]pyrimidin-6-amine]
1000 to 10000	< 100	COc1nn(CCO)cc1Nc1ncc2cnn(Cc3cccc(F)c3F)c2n1 [Example 50, 2-(4-(1-(2,3-Difluorobenzyl)-1H-pyrazolo[3,4-d]pyrimidin-6-ylamino)-3-methoxy-1H-pyrazol-1-yl)ethanol]
≥ 10000	< 100	Cn1cc(Nc2ncc3cnn(Cc4cccc(N5CC[C@@H](O)C5)n4)c3n2)cn1 [Example 208, (R)-1-(6-((6-((1-Methyl-1H-pyrazol-4-yl)amino)-1H-pyrazolo[3,4-d]pyrimidin-1-yl)methyl)pyridin-2-yl)pyrrolidin-3-ol]
< 100	< 100	Cn1cc(Nc2ncc3cnn(Cc4ccccc4F)c3n2)cc1C(=O)N1CCOCC1 [Example 244, (4-((1-(2-Fluorobenzyl)-1H-pyrazolo[3,4-d]pyrimidin-6-yl)amino)-1-methyl-1H-pyrrol-2-yl)(morpholino)methanone]
100 to 1000	< 100	CN(C)CCCn1cc(Nc2ncc3cnn(Cc4ccccc4F)c3n2)cn1 [Example 125, N-(1-(3-(Dimethylamino)propyl)-1H-pyrazol-4-yl)-1-(2-fluorobenzyl)-1H-pyrazolo[3,4-d]pyrimidin-6-amine]
≥ 10000	100 to 1000	Cn1cc(Nc2ncc3cnn(CCc4ccccc4F)c3n2)cn1 [Example 77, 1-(2-Fluorophenethyl)-N-(1-methyl-1H-pyrazol-4-yl)-1H-pyrazolo[3,4-d]pyrimidin-6-amine]
